Assay results published in patent EP4122467A1, “THX-B FOR TREATING AND PREVENTING CANCER AND METASTASIS” (Fundación del Sector Público Estatal Centro Nacional de …, priority 2021, dated 2023).
Entries after “also recorded” stand apart in the source; their conditions may differ.

Columns and labels:
proNGF/p75^NTR axis [1] = test: Voiding spot assay (VSA) in diabetic mice; type: in vivo, C57BL/6 female mice
Experimental: Voiding spot assay: For the voiding spot assay (VSA), mice were placed individually with access to food without water for 2 h. The cage was fitted with a chromatography paper, grade 3 mm CHR (Whatman, GE Healthcare, UK) covered by a fine metallic mesh (2-3 mm pore size). The urine spot pattern was assessed by imaging the chromatography paper with ultraviolet light using SynGene Bioimaging system (USA) connected to GeneSnap software (Version 7.02, USA) and analysed by ImageJ software (Version: 2.0.0-rc-66/1.52n, NIH, USA) using a calibration curve and Void Whizzard free software plugin for FIJI (distribution of ImageJ, Version: 2.0.0-rc-66/1.52n, NIH, USA). Mice were acquainted to the procedure once to get accustomed, then the experiment was done once to obtain the voiding data.
(§1) Animal housing and treatments All experiments received the ethical approval from the Lady Davis Institute Ethics Board (No. 7859), Montreal, Canada. Housing and handling conformed with the Canadian Council for Animal Care (CCAC). One hundred and forty four 9-week-old C57BL/6 female mice were kept on a 12 h light/dark cycle with free access to food (standard Purina chow, Teklad Global, Wl, USA) and water. Diabetes was induced by i.p. injection of streptozotocin (60 mg/kg in citrate buffer, 10 mmol/l, pH 4.5 on 5 consecutive days) after 4-5 h fasting. Fasting serum glucose (FSG) was checked after 5-7 days using a glucometer (Contour next EZ, Bayer, ON, Canada) from the tail. FSG above 14 mmol/l was considered diabetic. Mice were divided into four groups without pre-considering their weight changes or glucose levels (for diabetic groups): control (42 mice); untreated diabetic (hereafter referred to as Dm; 42 mice); anti-proNGF mAb-treated diabetic mice (30 mice); and small molecule p75^NTR antagonist (THX-B)-treated diabetic mice (30 mice). […] This inhibitor antagonises ligand-dependent p75^NTR functions and, different from other anti-NGF mAbs, it is free of the off-target side effects resulting from inhibiting TrkA. We have observed that the molecule is detectable in systemic circulation for 2 weeks. The THX-B small molecule ((1,3-diisopropyl-1-[2-(1,3-dimethyl-2,6-dioxo-1,2,3,6-tetrahydro-purin-7-yl)-acetyl]-urea); molecular mass […]) is a synthetic chemical with an estimated systemic circulation half-life in vivo of 6-8 h.
(§2) Without blinding, i.p. injections of the drug molecules or the vehicle (PBS) were given weekly for four weeks, starting after 2 weeks of diabetes confirmation. A single starting proNGF mAb i.p. injection of 100 µg/mouse in 150 µl PBS was followed by 60 µg/mouse in 100µl PBS for the following three injections. THX-B was injected i.p. at a weekly dose of 50 µg/mouse in 125 µl PBS. Experimental time points (to carry out cystometry, contractility, protein extraction and histology) were baseline (two weeks after diabetes diagnosis included control and Dm groups only), week 2 after treatment (following 2 injection cycles) and week 4 after treatment (following 4 injection cycles). Body weight was measured weekly and FSG fortnightly for all groups. Six mice from each group were kept for another 2 weeks after the end of the study duration to observe the washout/prolonged effect of the molecules.

[2] = Persistence in systemic circulation in vivo; details: read-out: estimated systemic circulation half-life in vivo
Excerpt: In both the proNGF mAb and the THX-B treatments, the prolonged anatomical physiological effects on the bladder are likely to be due to a prolonged therapeutic effect rather than to the drugs remaining in circulation at therapeutic levels after a 3 week period, given that we have observed that anti-proNGF mAb is detectable in systemic circulation only for 2 weeks in previous studies.
(§3) Animal housing and treatments All experiments received the ethical approval from the Lady Davis Institute Ethics Board (No. 7859), Montreal, Canada. Housing and handling conformed with the Canadian Council for Animal Care (CCAC). One hundred and forty four 9-week-old C57BL/6 female mice were kept on a 12 h light/dark cycle with free access to food (standard Purina chow, Teklad Global, Wl, USA) and water. Diabetes was induced by i.p. injection of streptozotocin (60 mg/kg in citrate buffer, 10 mmol/l, pH 4.5 on 5 consecutive days) after 4-5 h fasting. Fasting serum glucose (FSG) was checked after 5-7 days using a glucometer (Contour next EZ, Bayer, ON, Canada) from the tail. FSG above 14 mmol/l was considered diabetic. […]

proNGF/p75^NTR axis [3] = test: Bladder weight and morphology in diabetic voiding dysfunction model; type: in vivo, C57BL/6 female mice
Experimental: as §1, §2

[4] = Drug levels and tissue distribution after intraperitoneal and oral administration; type: in vivo, mice
Experimental: In lymph nodes compound was detected at 8 hours with a concentration of 9 ng/ml.

proNGF/NGF = test: Molecular changes in diabetic voiding dysfunction model: proNGF/NGF; type: in vivo, C57BL/6 female mice; details: compared with Dm
Experimental: as §3, with “diabetic. Mice were divided into four groups without pre-considering their weight changes or glucose levels (for diabetic groups): control (42 mice); untreated diabetic (hereafter referred to as Dm; 42 mice); anti-proNGF mAb-treated diabetic mice (30 mice); and small molecule p75^NTR antagonist (THX-B)-treated diabetic mice (30 mice).” for “diabetic.”
(§4) Without blinding, i.p. injections of the drug molecules or the vehicle (PBS) were given weekly for four weeks, starting after 2 weeks of diabetes confirmation. […] Body weight was measured weekly and FSG fortnightly for all groups. […]

proNGF/p75^NTR axis [5] = test: Bladder contractility in diabetic voiding dysfunction model; type: in vivo, C57BL/6 female mice; details: compared with Dm, week as printed in the cell
Experimental: as §1
Without blinding, i.p. injections of the drug molecules or the vehicle (PBS) were given weekly for four weeks, starting after 2 weeks of diabetes confirmation. A single starting proNGF mAb i.p. injection of 100 µg/mouse in 150 µl PBS was followed by 60 µg/mouse in 100µl PBS for the following three injections. THX-B was injected i.p. at a weekly dose of 50 µg/mouse in 125 µl PBS. […] Body weight was measured weekly and FSG fortnightly for all groups. […]

proNGF/p75^NTR axis [6] = test: Fasting serum glucose and bladder weight/morphology after drug washout (Figure 7); type: in vivo, C57BL/6 female mice; details: after the 3 week washout period; compared with Dm
Experimental: (§5) • Figure 1. NGFR inhibition by THX-B reduces melanoma spontaneous metastasis. A-B) 200.000 lymph node metastatic mouse melanoma cells were subcutaneously in c57/BL6 mice. Animals were treated intra-peritoneally with THX-B (4 mg/Kg twice a week), starting on day 7 post-injection of tumor cells. Tumor volume (A) was measured twice a week using a caliper. LN and lung metastatic burden (B) were measured using the IVIS image system and represented as fold over vehicle treated mice. Error bars represent s.e.m. of 2 experiments (n = 8 mice, vehicle group and n = 10, THX-B group). C-D) Similarly, tumor growth (C) was measured in mice subcutaneously injected with lung metastatic mouse melanoma cells (200.000) and treated with vehicle or THX-B in the same conditions as A) (n=4-5mice per condition). D) Percentage of lung lobules with melanoma metastasis in animals with flank tumors originated by injecting B16F10 cells. p values were calculated by two-tailed Student's t test. • Figure 2. […] A) Tumor growth was measured with a caliper twice a week. B) Quantification of the percentage of lung lobules with melanoma metastasis was analyzed measuring Luc expression of tumor loci with the IVIS system. p values were calculated by two-tailed Student's t test. • Figure 3. […] A) Tumor volume was measured using a caliper. […] Distal metastases were analyzed measuring luciferase expression in the lungs using IVIS system. […]

TNF-a = test: Molecular changes in diabetic voiding dysfunction model: TNF-a; type: in vivo, C57BL/6 female mice; details: compared with Dm
Experimental: as §3, with “diabetic. Mice were divided into four groups without pre-considering their weight changes or glucose levels (for diabetic groups): control (42 mice); untreated diabetic (hereafter referred to as Dm; 42 mice); anti-proNGF mAb-treated diabetic mice (30 mice); and small molecule p75^NTR antagonist (THX-B)-treated diabetic mice (30 mice).” for “diabetic.”
as §4

B16F1-R2 cells = test: Lymph node lymphangiogenesis, LYVE-1 staining of inguinal LNs of animals with flank tumors (Figure 5); type: in vivo; details: 2.5 mg/Kg THX-B intra-peritoneally twice a week from day 7; sacrificed at 21 days
Experimental: as §5

proNGF/p75^NTR axis [7] = test: Cystometry in diabetic voiding dysfunction model; type: in vivo, C57BL/6 female mice; details: compared with Dm
Experimental: as §1, §2

mouse melanoma cells = test: Spontaneous metastasis model, mouse melanoma cells injected subcutaneously (Figure 1); type: in vivo, c57/BL6 mice
Experimental: • Figure 1. NGFR inhibition by THX-B reduces melanoma spontaneous metastasis. A-B) 200.000 lymph node metastatic mouse melanoma cells were subcutaneously in c57/BL6 mice. Animals were treated intra-peritoneally with THX-B (4 mg/Kg twice a week), starting on day 7 post-injection of tumor cells. Tumor volume (A) was measured twice a week using a caliper. LN and lung metastatic burden (B) were measured using the IVIS image system and represented as fold over vehicle treated mice. Error bars represent s.e.m. of 2 experiments (n = 8 mice, vehicle group and n = 10, THX-B group). C-D) Similarly, tumor growth (C) was measured in mice subcutaneously injected with lung metastatic mouse melanoma cells (200.000) and treated with vehicle or THX-B in the same conditions as A) (n=4-5mice per condition). D) Percentage of lung lobules with melanoma metastasis in animals with flank tumors originated by injecting B16F10 cells. p values were calculated by two-tailed Student's t test. • Figure 2. NGFR inhibition by THX-B reduces melanoma spontaneous metastasis in immunodeficient models. Lung metastatic human melanoma cells (500.000) were injected subcutaneously into the flank of nude mice. […] A) Tumor growth was measured with a caliper twice a week. B) Quantification of the percentage of lung lobules with melanoma metastasis was analyzed measuring Luc expression of tumor loci with the IVIS system. p values were calculated by two-tailed Student's t test. • Figure 3. […] A) Tumor volume was measured using a caliper. […] Distal metastases were analyzed measuring luciferase expression in the lungs using IVIS system. Error bars represent s.e.m of 3 experiment (n = 12 mice, vehicle group, n = 12, antiPD-L1 group; n=8 antiPDL1 and THX-B group). p values were calculated by two-tailed Student's t test. • Figure 4. […] Quantification of LYVE+ area was performed with ImageJ software and was normalized to total LN area in each section. Error bars represent s.e.m of 1 experiment (n = 6 LNs, 3 whole sections analyzed per nodule). p values were calculated by two-tailed Student's t test. • Figure 6. […]

[8] = tested on: Lung metastatic human melanoma cells; test: Spontaneous metastasis model in immunodeficient mice, human melanoma cells injected subcutaneously (Figure 2); type: in vivo, nude mice; details: immunodeficient models; THX-B 4 mg/Kg intraperitoneal twice a week from day 7; vs vehicle
Experimental: as §5

[9] = compared with Dm, week as printed in the cell
[10] = THX-B 4 mg/Kg intra-peritoneally twice a week from day 7, vs vehicle

- half-life [2]: 6 to 8 h
- organ distribution: lymph nodes ([4]; females, 20 hours after injection 4mg/Kg): can be detected
- detection levels ([4]; intraperitoneal injection 4mg/Kg, males and female mice, said to suggest a short half-life): dropped 1 hour after injection
- concentration at 8 h ([4]; mouse, lymph nodes, oral dose 50mg/Kg, 8 hours): 9 ng/mL
- concentration at 24 h ([4]; mouse, tissues except lymph nodes, oral dose 50mg/Kg, 24h, read-out: tissue distribution: concentration in all the tissues except the lymph nodes): 12 to 20 ng/mL
- half-life ([4]; oral gavage 10mg/Kg, compared with intraperitoneal injection): similar
- half-life ([4]; oral gavage 50mg/Kg): sustained over time
SMILES: CC(C)NC(=O)N(C(=O)Cn1cnc2c1c(=O)n(C)c(=O)n2C)C(C)C [THX-B, 1,3-diisopropyl-1-[2-(1,3-dimethyl-2,6-dioxo-1,2,3,6-tetrahydro-purin-7-yl)-acetyl]-urea]
- lower total voided volume compared with Dm (proNGF/p75^NTR axis [1]; after 2 weeks of treatment): 50%
- total voided volume (proNGF/p75^NTR axis [1]; after 2 weeks of treatment, 2 h VSA, Dm 802.5±123µl): 372 ± 73 µL
- VSA: Volume per spot (proNGF/p75^NTR axis [1]; compared with Dm): ⇔
- effects on voiding frequency, total voided volume and mean volume per micturition (proNGF/p75^NTR axis [1]; compared with Dm, except total voided volume for THX-B at 2 weeks): minimal effects
- VSA: Number of spots (proNGF/p75^NTR axis [1]; [9]): ↓ (week 2)
- VSA: Total volume (proNGF/p75^NTR axis [1]; [9]): ↓ (week 2)
- Morphology: Collagen content (proNGF/p75^NTR axis [3]; compared with Dm): ↓
- Morphology: Detrusor (proNGF/p75^NTR axis [3]; compared with Dm): ↓
- Morphology: Mucosa (proNGF/p75^NTR axis [3]; compared with Dm): ↓
- Morphology: Overall thickness (proNGF/p75^NTR axis [3]; compared with Dm): ↓
- Bladder weight (proNGF/p75^NTR axis [3]; compared with Dm, week of treatment as printed in the cell): ↓ (week 2,4)
- morphology of the bladder (proNGF/p75^NTR axis [3]; following THX-B treatment, in spite of continuous hyperglycemia): improved
- Molecular changes: proNGF/NGF (proNGF/NGF): ↓
- Contractility: EFS (proNGF/p75^NTR axis [5]; Electric field stimulation): ↑ (week 2,4)
- Contractility: Carbachol (proNGF/p75^NTR axis [5]): ↑ (week 2,4)
- Contractility: KCI (proNGF/p75^NTR axis [5]): ↑ (week 2,4)
- Bladder weight (proNGF/p75^NTR axis [6]): persistent absence of bladder hypertrophy; also recorded: maintained a significant difference
- Molecular changes: TNF-a (TNF-a): ↓↓
- lymph node lymphangiogenesis (Lyve-1+ staining in inguinal lymph nodes) (B16F1-R2 cells): reduces; also recorded: decreased
- Cystometry: Spontaneous activity (proNGF/p75^NTR axis [7]): ⇔
- Cystometry: Bladder capacity (proNGF/p75^NTR axis [7]; week as printed in the cell): ↓ (week 4)
- Cystometry: Bladder compliance (proNGF/p75^NTR axis [7]; week as printed in the cell): ⇔
- Cystometry: ICI (proNGF/p75^NTR axis [7]; inter-contraction interval, week as printed in the cell): ↓ (week 4)
- melanoma spontaneous metastasis (mouse melanoma cells; Figure 1 title, THX-B 4 mg/Kg intra-peritoneally twice a week): reduces
- distal (lung) spontaneous metastasis (mouse melanoma cells; [10]): impaired
- local (lymph node) spontaneous metastasis (mouse melanoma cells; [10]): impaired
- lung spontaneous metastasis [8]: reduce
